Laboratory results taken from patent US20240156778A1, “THIOPHENE DERIVATIVES FOR USE IN TREATING PORTAL INFLAMMATION AND FIBROSIS” (ENYO PHARMA, priority 2019, published 2024).

Columns and labels:
NASH mouse model [1] = experiment: Periportal fibrosis (% fractional area, Picro Sirius Red) in the AMLN-diet NASH mouse model; assay type: in vivo, male C57BL/6JRj mice; details: 8 weeks oral dosing after high-fat (AMLN) diet; Compound #157 7 or 20 mg/kg twice daily; FIG. 2
Method: (§1) Mice were fed with a high-fat diet for 30 weeks and then treated by oral administration, twice daily with either compound #157 or once daily with OCA for 8 weeks. Effects on portal/periportal inflammation and fibrosis and on lobular inflammation were determined before treatment and upon study completion.
(§2) Five week old, male C57BL/6JRj mice were fed either chow diet (Altromin 1324, Brogaarden, Denmark) or AMLN diet (40% total fat kcal of which 18.5% were trans-fat kcal, 20% fructose, 2% cholesterol; Research Diets #D09100301). This diet was maintained for 29 weeks prior to study initiation.
Three weeks prior to study initiation, liver biopsies were taken and animals with steatosis grade <2 and fibrosis stage <1 were deselected from the study. […]
(§3) At termination, right medial and/or left lateral lobes of the liver (>50% of each lobe harvested) were excised and fixed in 10% neutral-buffered formalin (at least 7 days at room temperature). […] NAFLD and NASH were scored by use of criteria outlined by Kleiner et al. Hepatology 41, p. […]
Portal fibrosis was quantified using Visiopharm Histopathology Image Analysis software (Visioparm, Hørsholm, Denmark). […] Periportal fibrosis was then detected in the periportal zone using the linear Bayesian method and reported as an area fraction.

NASH mouse model [2] = experiment: Periportal inflammation score in the AMLN-diet NASH mouse model (H&E inflammatory foci); assay type: in vivo, male C57BL/6JRj mice; details: 8 weeks oral dosing after high-fat (AMLN) diet; Compound #157 7 or 20 mg/kg twice daily; OCA 30 mg/kg once daily; FIG. 1
Method: as §1, §2
Three weeks prior to study initiation, liver biopsies were taken and animals with steatosis grade <2 and fibrosis stage <1 were deselected from the study. Prior to first administration of test article, stratified randomization of mice into treatment groups was performed according to collagen 1a1 (IHC) morphometry from the week -3 biopsies. […]
as §3
Inflammation was evaluated by counting the number of hematoxylin and eosin (H&E) positive inflammatory foci per field using a 200× magnification (min. 5 fields per animal). […]

`O=C(Nc1scc(C2CCc3ccccc3C2)c1C(=O)O)c1ccccc1` (stereo not drawn) [Compound #157] was tested, and the “Effect on portal/periportal fibrosis” value (NASH mouse model [1]) was “resolves” and the “Effect on portal/periportal inflammation” value (NASH mouse model [2]) was “resolves”.

For `CC[C@H]1[C@@H](O)[C@@H]2[C@H](CC[C@]3(C)[C@@H]([C@H](C)CCC(=O)O)CC[C@@H]23)[C@@]2(C)CC[C@@H](O)C[C@@H]12` [OCA, Obeticholic acid, reference compound], the “Effect on portal/periportal inflammation” value (NASH mouse model [2]) was “no effect”.
